Entries after “also recorded” stand apart in the source; their conditions may differ. Read-outs that look alike come from different tables or passages of the source.
What was measured:
PTEN/AKT pathway = PTEN/AKT pathway expression in SNU-398 cells after treatment (Western blot, mRNA); assay type: cell-based, human; settings: for PTEN protein expression / phosphorylated AKT (pAKT) level: SNU-398, Western blot
Description: The induction of Pten expression was not affected when wt peptide was administrated together with a Pten inhibitor. AKT, a molecule with levels of phosphorylation controlled by the expression of Pten was affected by the wt peptide addition accordingly. […] The effect of wt peptide on pAKT was abrogated by the Pten inhibitor. […] In contrast, the protein expression level of endogenous Pten was very high in the none-SALL4 expressing SNU387 cells.
Then tested was whether this peptide could reverse the repressive effect of SALL4 on its target genes. The focus was onPTEN, since it is implicated in SALL4-mediated leukemogenesis (Yang et al., Blood, 112:805-813 (2008); Lu et al., PLoS One, 4:e5577 (2009)). In addition, it was previously reported that SALL4 could specifically bind to the PTEN promoter region in a chromatin immunoprecipitation (ChIP) assay (Lu et al., PLoS One, 4:e5577 (2009)). When SALL4 was overexpressed in 293T cells, an enrichment of SALL4 as well as decreased H3 acetylation at this binding site was observed, which correlated with decreased PTEN RNA expression (Lu et al., PLoS One, 4:e5577 (2009))). Therefore, it was hypothesized that SALL4 could recruit the HDAC/NuRD complex to repress PTEN, and that the wild type peptide would compete with endogenous SALL4 in recruiting the HDAC/NuRD complex to the PTEN promoter, and release the repression effect of SALL4 on PTEN. Furthermore, this model would predict that wild type peptide treatment of SALL4-expressing cells would lead to increased epigenetic markers of gene activation, such as H3 acetylation, at the PTEN promoter binding site, as well as an increase in PTEN expression. To test this possibility, SNU-398 cells were treated with scrambled or wild type peptide and subsequently evaluated for PTEN expression and H3 acetylation at the SALL4 binding site at the PTEN promoter region. […] Therefore, the results herein are compatible with the model that SALL4 recruits HDACs to repress PTEN expression, and blocking the SALL4-HDAC interaction with the wild type peptide results in increased expression of PTEN.
To confirm the involvement of PTEN tumor suppressor in SALL4 peptide-induced reduction of number of viable HCC cells, PTEN expression was analyzed by western blot upon drug treatment. […] Whether the increase in PTEN expression upon SALL4 peptide treatment has an effect in PI3K signalling by dephosphorylating AKT was examined.
To confirm the involvement of the PTEN tumor suppressor in the SALL4 peptide-induced reduction of HCC cell viability, PTEN expression was analyzed by western blot upon drug treatment. […] If the increase in PTEN expression has an effect in PI3K signaling was next examined. PTEN functions as a phosphatase to dephosphorylate AKT.

HDAC complex = biological target: T1, HDAC complex (Homo sapiens, UniProt Q09028); experiment: Fluorescent polarization competitive binding in SNU-398 nuclear extracts; settings: unlabeled peptide competing with FITC-labeled peptide
T1 construct: endogenous in cells; host or cells: SNU-398 nuclear extract
T1 sequence (Q09028 whole entry, one chain of several): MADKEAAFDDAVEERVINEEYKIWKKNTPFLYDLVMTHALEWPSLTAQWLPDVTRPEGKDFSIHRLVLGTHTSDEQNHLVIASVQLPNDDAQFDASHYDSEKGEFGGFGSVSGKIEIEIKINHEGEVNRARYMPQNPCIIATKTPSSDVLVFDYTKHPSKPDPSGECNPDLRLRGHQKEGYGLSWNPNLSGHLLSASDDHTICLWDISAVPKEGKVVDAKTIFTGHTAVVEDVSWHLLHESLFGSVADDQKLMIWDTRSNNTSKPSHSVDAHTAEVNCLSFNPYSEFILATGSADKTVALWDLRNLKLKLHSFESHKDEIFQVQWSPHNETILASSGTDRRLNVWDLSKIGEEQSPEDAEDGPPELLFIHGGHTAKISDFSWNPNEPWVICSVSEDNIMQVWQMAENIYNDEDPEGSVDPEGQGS
Experimental: Below are the amino acid sequences of the peptides used in this study. In the mutant peptide (mut), Lys 5 is replaced with an alanine residue. […] In the first lane marked “Input”, 10% of the extracts were subjected to western blot analysis without immunoprecipitation. […] Extracts were subsequently immunoprecipitated with anti-FITC antibody and the complexes pulled down were subjected to an HDAC activity assay as described in the methods. TSA was added at a concentration of 100 nM. Input is the sample in which 10% of the extract was assayed for HDAC activity without the immunoprecipitation step. […] Competitive binding of nonlabeled wild type or scrambled peptides was measured by fluorescent polarization. […] The fluorescent polarization (y axis) is decreased if the FITC-labeled peptide is displaced from a larger complex.
Next tested was the binding affinity of the wild type and scrambled peptides to the HDAC complex. For this, Fluorescent Polarization (FP), a technology based on molecular movement and rotation in which fluorescent molecules are excited with polarized light, was used. If the fluorescent molecules are part of a large complex, they rotate less and the emitted light has high polarity. In contrast, smaller molecules rotate faster and have low polarity (“depolarized”). […] Using this approach, FITC-labeled wild type or scrambled peptides were first mixed with nuclear extracts from SNU-398 cells. Serial dilutions of unlabeled wild type or scrambled peptides were then added as competitors respectively, and measured by FP assay.

IC50 (HDAC complex; read-out: IC50) | Compound | PTEN protein expression (PTEN/AKT pathway) | phosphorylated AKT (pAKT) level (PTEN/AKT pathway) | PTEN protein expression (PTEN/AKT pathway; listed as Trichostatin A) | Pten mRNA expression (PTEN/AKT pathway; SNU-398) | elevation of PTEN expression level (PTEN/AKT pathway; SNU-398, 24 h, relative to alfa-tubulin) | PTEN protein expression (PTEN/AKT pathway; listed as SALL4 peptide) | phosphorylated AKT (pAKT) level (PTEN/AKT pathway; listed as SALL4 peptide) | PTEN protein expression (PTEN/AKT pathway; listed as SALL4 peptide (wt)) | PTEN protein expression (PTEN/AKT pathway; listed as Wild type peptide) | PTEN protein expression (PTEN/AKT pathway; listed as wild type peptide) | phosphorylated AKT (pAKT) level (PTEN/AKT pathway; listed as wt) | IC50 (HDAC complex) | PTEN protein expression (PTEN/AKT pathway; listed as scrambled (mutant) peptide) | PTEN protein expression (PTEN/AKT pathway; listed as scrambled peptide)
 | CC(/C=C/C(=O)NO)=C\[C@@H](C)C(=O)c1ccc(N(C)C)cc1 [TSA, Trichostatin A, reference compound] | also induced PTEN expression; also recorded: also induced PTEN upregulation | significantly reduced | levels of PTEN were elevated |  |  |  |  |  |  |  |  |  |  | 
5 µM | H-MSRRKQAKPQHI-OH [wt peptide, MSRRKQAKPQHI] | noticeably higher |  |  | increased Pten mRNA expression level | More than 2 times | extensive increase in PTEN protein | significant reduction of pAKT level; also recorded: marked reduction of phospho AKT protein levels | extensive increased in PTEN expression | increased PTEN protein | increased PTEN expression | significantly reduced |  |  | 
 | Scr peptide: same 12 amino acids as the wt peptide, but in a scrambled sequence; negative control (SRMRQKIHPKIQ) [reference compound] | an effect not observed | No effect |  |  |  |  |  |  |  |  |  | could not be calculated due to the lack of binding activity | does not exhibit the same properties | not observed

Reference: patent US9365851B2, “Spalt-like transcription factor 4 (SALL4) and uses thereof” (National University of Singapore, priority 2011, dated 2016)
